Where “and” joins values, the source holds several entries; their conditions need not be identical. Identical values can stand only once.
Tests used:
[1] = PET/CT scan of ICR mice with ^18F substituted thiamine as tracer, whole brain ROI (SUV, TAC); format: in vivo; settings: control group ICR mice (normal diet), two mice
[2] = as above; format: in vivo
Excerpt: 1. Experiments on Scanning of ICR Mice by Using ^18F Substituted Thiamine as a PET/CT Tracer.
(§1) 1.1. Experimental Drug: ^18F Substituted Thiamine (Synthesized and Identified as in Example 1).
(§2) 1.2. Animals and treatments: 8-week-old ICR mice, SPF grade, purchased from Shanghai SLAC Laboratory Animal Co., Ltd, were housed in a barrier environment and assigned to a treatment group and a control group randomly. The animals in the treatment group were fed with thiamine deficient diet (n=3), and the animals in the control group were fed with normal diet (n=3). After 28 days, PET/CT scan of the mice was performed.
1.3. PET/CT scan of the mice: small animal PET/CT scanner (Inveon, Siemens) thickness of PET layer: 0.78 mm, 128*128 matrix, energy window: 350-650 kev, CT tube current: 500 uA, tube voltage: 80 kv; scan mode: dynamic scan; scan time: 90 min.
(§3) 1.4. Processing of PET/CT image: After the acquisition, the images were reconstructed with two iterations of 3D OSEM. The whole brain was delimited as the region of interest (ROI) by the image processing software coming with the Inveon small animal PET/CT scanner. The Standard uptake value (SUV) and TAC within 90 min were calculated.

[3] = PET/CT scan of C57BL/6 mice with ^18F substituted thiamine as tracer, whole brain ROI (SUV, TAC); format: in vivo
Excerpt: 1. Experiments on Scanning of C57BL/6 Mice by Using ^18F Substituted Thiamine as a PET/CT Tracer.
as §1
as §2, with “treatments: 8-week-old C57BL/6 mice, SPF” for “treatments: 8-week-old ICR mice, SPF”, “a control group, randomly. The” for “a control group randomly. The”, “deficient diet (n=2), and the” for “deficient diet (n=3), and the”
1.3. PET/CT scan of the mice: Small animal PET/CT scanner (Inveon, Siemens), thickness of PET layer: 0.78 mm, 128*128 matrix, energy window: 350-650 kev, CT tube current: 500 uA, tube voltage: 80 kv; scan mode: dynamic scan; scan time: 90 min.
as §3, with “SUV” for “Standard uptake value (SUV)”

[4] = small animal PET/CT scan of two strains of mice (summary statement); format: in vivo, mice (ICR and C57BL/6); settings: ICR and C57BL/6 mice
Excerpt: is successfully substituted with ^18F atom, and a fluorine-substituted thiamine (Formula I) and a hydrobromide thereof (Formula II) are synthesized. Subsequently, the present inventors scan two strains of mice (ICR and C57BL/6) using the small animal PET/CT.

SMILES | SUV value at absorption peak in the brain [1] | time of absorption peak in the brain [1] | uptake in the brains of thiamine-deficient group versus control (images) ([2]; ICR mice, FIGS. 8 and 9) | SUV value at peak of absorption in the brain ([2]; thiamine-deficient group ICR mice, individual mice) | time of peak of absorption in the brain ([2]; thiamine-deficient group ICR mice, individual mice, 90 min dynamic scan) | uptake in the brains of thiamine-deficient mice versus control (images) ([3]; C57BL/6 mice, FIGS. 12 and 13) | SUV value at absorption peak in the brain ([3]; control group C57BL/6 mice (normal diet), individual mice) | SUV value at peak of accumulation in the brain ([3]; thiamine-deficient group C57BL/6 mice, individual mice, at 90 min) | time of peak of accumulation in the brain ([3]; thiamine-deficient group C57BL/6 mice, two mice, rose continuously over 90 min) | uptake in the brain of thiamine-deficient model mice versus control mice [4] | blood-brain barrier penetration ([4]; small animal PET/CT)
Cc1ncc(C[n+]2csc(CC[18F])c2C)c(N)n1 [^18F substituted thiamine, 3-[(4-Amino-2-methylpyrimidin-5-yl)methyl]-5-(2-fluoroethyl)-4-methylthiazolium] | 0.18 and 0.36 | about 20 min | obviously increased | 0.98 and 0.97 and 0.61 | 22.5 min and 35 min and 65 min | obviously increased | 0.17 and 0.25 and 0.3 | 0.48 and 0.55 | 90 min | – | –
Br.Cc1ncc(C[n+]2csc(CC[18F])c2C)c(N)n1.[Br-] [^18F substituted thiamine hydrobromide] | – | – | – | – | – | – | – | – | – | significantly higher | successfully penetrates the blood-brain barrier

From US20180237358A1, “RADIOISOTOPE 18F SUBSTITUTED THIAMINE, AND SYNTHESIS METHOD AND USE THEREOF” (ZHONGSHAN HOSPITAL FUDAN UNIVERSITY, priority 2015, published 2018)
